Measured values published in patent US4244946A, “Water-soluble peptides affecting gonadal function” (The Salk Institute for Biological Studies, priority 1979, dated 1981).

Assays:
[1] = tested on: dispersed rat pituitary cells; test: LH secretion by four-day-old primary culture of dispersed rat pituitary cells over 4 hours, radioimmunoassay for rat LH; format: cell-based; conditions: for NANOGRAMS OF LH SECRETED: Table I, 4-hour period; for relative potency, compared to LRF: in vitro LH release, confidence limits in parentheses
Experimental: The peptides prepared in the foregoing Example I are assayed in vitro using a four-day-old primary culture of dispersed rat pituitary cells and compared with LRF. The levels of LH secreted over a 4-hour period in response to the application of peptides are assayed by specific radioimmunoassay for rat LH. The results of testing are expressed in Table I herebelow: […]

[2] = tested on: dispersed rat pituitary cells; test: as above; format: cell-based; conditions: Table II, 4-hour period
[3] = in vivo test of agonistic potency compared with LRF
Experimental: The effectiveness of the peptide compositions prepared in Examples I and II is also tested in vivo, and the relative agonistic potencies of peptides determined in the in vitro assays reported above correlate well with the potencies obtained from in vivo tests.

Compound | NANOGRAMS OF LH SECRETED ([1]; 0.1 nM peptide) | NANOGRAMS OF LH SECRETED ([1]; 0.3 nM peptide) | NANOGRAMS OF LH SECRETED ([1]; 1.0 nM peptide) | NANOGRAMS OF LH SECRETED ([1]; 3.0 nM peptide) | NANOGRAMS OF LH SECRETED ([2]; 0.3 nM peptide) | NANOGRAMS OF LH SECRETED ([2]; 1.0 nM peptide) | NANOGRAMS OF LH SECRETED ([2]; 3.0 nM peptide) | relative potency, compared to LRF [1] | relative potency, compared to LRF ([1]; Pro^9 -NEt]-LRF) | potency compared with LRF when tested in vivo [3] | NANOGRAMS OF LH SECRETED ([2]; 0.003 nM peptide) | NANOGRAMS OF LH SECRETED ([2]; 0.01 nM peptide) | NANOGRAMS OF LH SECRETED ([2]; 0.03 nM peptide) | NANOGRAMS OF LH SECRETED ([1]; 0.003 nM peptide) | NANOGRAMS OF LH SECRETED ([1]; 0.01 nM peptide) | NANOGRAMS OF LH SECRETED ([1]; 0.03 nM peptide) | relative potency, compared to LRF ([1]; listed as [D-His^6 (im-Bzl)]-LRF)
CC(C)C[C@H](NC(=O)CNC(=O)[C@H](Cc1ccc(O)cc1)NC(=O)[C@H](CO)NC(=O)[C@H](Cc1c[nH]c2ccccc12)NC(=O)[C@H](Cc1c[nH]cn1)NC(=O)[C@@H]1CCC(=O)N1)C(=O)N[C@@H](CCCNC(=N)N)C(=O)N1CCC[C@H]1C(=O)NCC(N)=O [LRF, p-Glu-His-Trp-Ser-Tyr-Gly-Leu-Arg-Pro-Gly-NH2, reference compound] | 1255 nanograms | 1767 nanograms | 2167 nanograms | 2867 nanograms | 631 nanograms | 1001 nanograms | 1496 nanograms | – | – | – | – | – | – | – | – | – | –
[D-His^6 (im-Bzl), Pro^9 -NEt]-LRF [Example II] | – | – | – | – | – | – | – | 217(57-952) times that of LRF | more than 200 times that of LRF | very significantly more potent than LRF | 895 nanograms | 1256 nanograms | 2008 nanograms | – | – | – | –
p-Glu-His-Trp-Ser-Tyr-D-His(im-Bzl)-Leu-Arg-Pro-Gly-NH2 [Example I] | 2225 nanograms | 2667 nanograms | – | – | – | – | – | 12(5.8-24) times that of LRF | – | very significantly more potent than LRF | – | – | – | 885 nanograms | 1345 nanograms | 2150 nanograms | about 12 times that of LRF
